Measurements as given in patent publication US9969768B1 (KING SAUD UNIVERSITY, priority 2017, dated 2018).

Key:
[1] = system: alloxan-induced diabetic mice; experiment: In vivo oral hypoglycemic activity, acute study; details: for % Change in SG: diabetic mice
Method: The percentage change in blood glucose levels in diabetic mice after oral administration of the test compounds, at a concentration of 200 μg/kg body weight, were determined at 2, 4, 6, and 24 hours.
The synthesized compounds were screened for hypoglycemic activity in vivo using the alloxan-induced diabetic mice model. For the acute study, animals were fasted overnight and the fasting blood serum glucose (SG) level was determined at 0 hours. Then the compounds were administered at a fixed dose of 200 μg/kg body weight orally (homogenized suspension in 0.5% carboxymethyl cellulose (CMC) with Tween 80). Animals in the vehicle group were given an equal amount of 0.5% CMC, while those in the control group were maintained as is. Blood samples were removed from all animals at 2, 4, 6 and 24 hours and percentage change in SG was calculated. See, Dunn, J. S., Letchie, N. G., “Experimental alloxan diabetes in the rat,” The Lancet 242(6265): 384-387 (1943); and Mourao R. H., Silva T. G., et al., “Synthesis and Biological Activity of Novel Acridinylidene and Benzylidene thiazolidinediones,” Eur. J. Med. Chem., 40: 1129-1133 (2005).

[2] = system: alloxan-induced diabetic mice; experiment: In vivo oral hypoglycemic activity, sub-acute study
Method: Study animals were fasted overnight, and the fasting SG levels calculated at 0 days. The test compounds were administered at a fixed dose of 200 μg/kg body weight orally (homogenized suspension in 0.5% CMC and permissible amounts of Tween 80) for 21 days at a fixed time. After 21 days, treatment was stopped and animals were left for a rest period of 7 days. Animals in the vehicle group were given an equal amount of 0.5% CMC, while those in the control group were maintained as is. During the study, blood samples were removed from all animals at 7, 14, 21 and 28 days, and the percentage change in SG was calculated. The data obtained were analyzed by one-way ANOVA followed by the Dunnett test. The results were expressed as mean±standard error of mean (SEM) for each group, while p<0.01 or p<0.05 was considered to be statistically significant. The percentage changes in blood glucose levels after oral administration, at 200 μg/kg body weight, were evaluated, and are reported in Table 5.

PPAR = PPAR agonist activity, PPRE-Luc dual luciferase reporter in HepG2 cells; assay type: cell-based; details: mean ± S.E.M., n = 6
Method: HepG2 cells were cultured in low glucose Dulbecco's Modified Eagle's medium (DMEM) supplemented with 100 U/mL streptomycin and penicillin. One day prior to transfection, the cells were plated in 96-well plates at 1.5×10^4 cells per well. After reaching 70% confluence, plasmid peroxisome proliferator responsive element-luciferase (PPRE-Luc) with firefly luciferase reporter gene and the control plasmid phRL-TK with renilla luciferase reporter gene were transfected into the cells. After 24 hours, the medium was replaced with either fresh medium (negative control) or fresh medium containing a test compound (10 mg/mL) or pioglitazone (positive control). Non-transfected cells were used as blank. After a further 24 hours, the expression of luciferases was measured using the Dual Luciferase Reporter Gene Assay Kit (Promega). The percent activation (T %) was calculated as [(L1sample−L1Blank)/(L1Negative−L1Blank)]/[(L2Sample−L2Blank)/(L2Negative−L2Blank)]×100%, where L1 represents the value for the value for firefly luciferase and L2 the value for Renilla luciferase. Xing-hua Z., Jufang Y., LiFan, W., Dacheng Y., “Synthesis and antidiabetic activity of β-acetamido ketones,” Acta Pharmaceutica Sinica 1(2):100-105 (2011).

DPP-IV = biological target: T1, DPP-IV (Homo sapiens, UniProt P27487); experiment: DPP-IV inhibition activity (fluorescence); assay type: biochemical; details: mean ± S.E.M., n = 6
T1 construct: purchased Sigma
T1 sequence (P27487 whole entry, species assumed): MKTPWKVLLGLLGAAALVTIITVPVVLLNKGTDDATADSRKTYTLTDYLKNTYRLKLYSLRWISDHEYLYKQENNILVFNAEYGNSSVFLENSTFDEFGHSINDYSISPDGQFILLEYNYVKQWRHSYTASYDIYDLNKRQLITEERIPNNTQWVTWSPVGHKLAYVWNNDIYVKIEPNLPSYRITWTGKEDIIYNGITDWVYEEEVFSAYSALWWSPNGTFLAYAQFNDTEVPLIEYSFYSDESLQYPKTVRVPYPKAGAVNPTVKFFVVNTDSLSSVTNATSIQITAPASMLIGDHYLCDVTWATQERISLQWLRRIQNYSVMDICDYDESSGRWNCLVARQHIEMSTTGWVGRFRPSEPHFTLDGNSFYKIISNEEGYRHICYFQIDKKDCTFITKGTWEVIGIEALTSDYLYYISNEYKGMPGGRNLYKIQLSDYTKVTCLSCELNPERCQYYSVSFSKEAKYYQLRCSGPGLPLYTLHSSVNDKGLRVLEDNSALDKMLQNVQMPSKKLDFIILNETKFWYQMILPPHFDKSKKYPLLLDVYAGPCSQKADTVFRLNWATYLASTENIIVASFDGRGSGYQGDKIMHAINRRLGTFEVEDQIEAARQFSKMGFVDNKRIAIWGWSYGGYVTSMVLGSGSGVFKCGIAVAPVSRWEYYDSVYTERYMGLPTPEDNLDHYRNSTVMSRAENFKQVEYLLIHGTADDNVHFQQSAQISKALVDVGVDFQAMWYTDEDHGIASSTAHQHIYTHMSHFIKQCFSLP
Method: A […] reaction system containing DPP-IV (Sigma), a test compound, and 25 mmol/L 4-(2-hydroxyethyl)-1-piperazineethanesulfonic acid (HEPES) buffer (containing 140 mmol/L NaCl, 1% Bovine serum albumin (BSA) and 80 mmol/L MgCl2) was pre-incubated at room temperature for 10 minutes. The reaction was initiated by the addition of […], and the reaction mixture was then incubated at room temperature for 25-45 minutes. […] A negative control (no test compound) and a blank control (no enzyme) were run simultaneously. The test compounds were initially assayed in duplicate at a concentration of 10 mg/mL.

[3] = biological target: α-Glucosidase from Saccharomyces cerevisiae; experiment: α-Glucosidase inhibitory activity (chromogenic method); assay type: biochemical; details: mean ± S.E.M., n = 6
Method: The α-Glucosidase inhibitory activity of each compound was determined according to the chromogenic method described by Chapdelaine et al with slight modifications. See, Chapdelaine P., Tremblay R. R., Dube, J. Y., “P-Nitrophenol-alpha-D-gluco-pyranoside as substrate for measurement of maltase activity in human semen,” Clin. Chem., 24: 208-211 (1978). α-Glucosidase from Saccharomyces cerevisiae and substrate solution […] (PNPG) were prepared with 0.1 mol L^−1 of Na-phosphate buffer (pH 6.8). The inhibitors were reconstituted in […] phosphate buffer in a 96-well microplate and incubated with […] α-Glucosidase at 37° C. for 15 minutes, and then 30 μL substrate was added. After incubation with substrate for 5 minutes, release of p-nitrophenol was measured at 405 nm by spectrophotometry. Percentage of enzyme inhibition was calculated according to {1−(Asample−Ablank)/Acontrol}×100, where Asample represents absorbance of test samples, Acontrol represents absorbance of solution without sample, and A blank represents absorbance in presence of solution without substrate.

[4] = 2 h after 200 μg/kg body weight orally
[5] = 4 h after 200 μg/kg body weight orally
[6] = 6 h after 200 μg/kg body weight orally
[7] = 24 h after 200 μg/kg body weight orally
[8] = 7 day, 200 μg/kg body weight orally daily
[9] = 7 days rest period after 21 days of treatment, 200 μg/kg orally
[10] = 14 day, 200 μg/kg body weight orally daily
[11] = 21 day, 200 μg/kg body weight orally daily

methyl-2-{N-(morpholino) methane}-3β-hydroxy-3α-phenyl-18β-Olean-12-ene-28-oate [Compound 6]
% Change in SG [1, 4]: −73.60% | % Change in SG [1, 5]: −80.74% | % Change in SG [1, 6]: −82.33% | % Change in SG [1, 7]: −77.80% | % Change in SG [2, 8]: −61.68% | % Change in SG [2, 9]: −85.89% | % Change in SG [2, 10]: −70.54% | % Change in SG [2, 11]: −86.45%

CC1(C)CC[C@]2(C(=O)O)CC[C@]3(C)C(=CC[C@@H]4[C@@]5(C)CC[C@H](O)C(C)(C)[C@@H]5CC[C@]43C)[C@@H]2C1 [Oleanolic acid, reference compound]
IC50 (PPAR): 14.9 µM | % Change in SG [1, 4]: −40.79% | % Change in SG [1, 5]: −48.66% | % Change in SG [1, 6]: −52.17% | % Change in SG [1, 7]: −51.01% | % Change in SG [2, 8]: −10.56% | % Change in SG [2, 9]: −30.32% | % Change in SG [2, 10]: −20.35% | % Change in SG [2, 11]: −37.68%

CCc1ccc(CCOc2ccc(CC3SC(=O)NC3=O)cc2)nc1 (centres unmarked) [Pioglitazone, reference compound]
% Change in SG [1, 4]: −32.16% | % Change in SG [1, 5]: −22.45% | % Change in SG [1, 6]: −12.34% | % Change in SG [1, 7]: −13.28% | time of maximum activity post-administration ([1]; acute study, 200 μg/kg orally): 2 h | % Change in SG [2, 8]: −11.23% | % Change in SG [2, 9]: −43.45% | % Change in SG [2, 10]: −18.34% | % Change in SG [2, 11]: −50.39%

C[C@H]1O[C@H](O[C@H]2[C@H](O)[C@@H](O)[C@@H](O[C@H]3[C@H](O)[C@@H](O)C(O)O[C@@H]3CO)O[C@@H]2CO)[C@H](O)[C@@H](O)[C@@H]1N[C@H]1C=C(CO)[C@@H](O)[C@H](O)[C@H]1O (some centres unmarked) [Acarbose, reference compound]
IC50 (DPP-IV): 176 µM | % Change in SG [1, 4]: −29.23% | % Change in SG [1, 5]: −27.87% | % Change in SG [1, 6]: −20.17% | % Change in SG [1, 7]: −22.39% | % Change in SG [2, 8]: −18.29% | % Change in SG [2, 9]: −27.65% | % Change in SG [2, 10]: −24.55% | % Change in SG [2, 11]: −31.78%

methyl-2-{phenyl-(4-pyridyl)-methane}-3-oxo-18β-olean-12-en-28-oate [Compound 3]
IC50 [3]: 0.123 ± 0.004 µM | % Change in SG [1, 4]: −75.78% | % Change in SG [1, 5]: −82.76% | % Change in SG [1, 6]: −85.74% | % Change in SG [1, 7]: −79.67% | % Change in SG [2, 8]: −66.76% | % Change in SG [2, 9]: −83.56% | % Change in SG [2, 10]: −73.65% | % Change in SG [2, 11]: −89.76%
